Measured values taken from patent EP0318029B1, “Cyclic amine and pharmacological composition” (Eisai Co., Ltd., priority 1987, dated 1989).

System: cerebral cortex slice
Assay: Glutamate liberation inhibitory activity in cerebral cortex slice
Format: cell-based, SD rat
Settings: 10⁻⁴ M test compound; rat cerebral cortex slice, 30 min pre-incubation, then 50 mM KCl for 60 min; glutamate determined by HPLC, relative to solvent control
Procedure: Glutamate liberation inhibitory activity in cerebral cortex slice
A male SD rat was decapitated, and cerebral cortices on both sides were then extirpated to prepare a slice having a thickness of 750 µm (weight: 10 to 20 mg) with a McIlwain tissue chopper. The slice was incubated in a Krebs-Henseleit liquid containing a test compound in the form of a solution thereof for 30 minutes. Then the slice was incubated in one ml of a Krebs-Henseleit liquid containing 50 mM of KCl and the test compound solution for 60 mins. For control, a solvent was added to a Krebs-Henseleit liquid containing only 50 mM of KCl.
The glutamate liberated in the solution was determined by HPLC, and the glutamate liberation inhibitory activity (%) in 10⁻⁴ M of each test compound solution was calculated by the following equation: (1 -(glutamate in each test compound solution)/(amount of glutamate in control group)) x 100 [formula]

## O=C(CN1CCC(Oc2ccc(F)cc2)CC1)c1ccc2ccccc2c1 [compd. of Ex. 3]
  glutamate liberation inhibitory activity (%) 1 x 10⁻⁴ M: 49%
